Values joined by “and” are separate entries in the source; they are usually repeats but may differ in a detail not shown here. Equal values may be shown once.
Experiments:
[1] = 101.33 kPa, Liquid; for speed of sound: sound analyzer
[2] = xn = mol fraction of the nth substance listed; settings: 101 kPa, Liquid

COCCOCCO [2-(2-methoxyethoxy)ethanol]
[1]
Settings	mass density [kg/m3]	speed of sound [m/s]
293.15 K	1019.81	1432.4
298.15 K	1015.41	1415.2
303.15 K	1010.91	1397.9

COCCOCCO [2-(2-methoxyethoxy)ethanol] + CCCCO
[2]
Settings	mass density [kg/m3]
293.15 K, x1 = 0.0535	823.612
293.15 K, x1 = 0.1527	848.542
293.15 K, x1 = 0.2	860.004
293.15 K, x1 = 0.2003	860.091
293.15 K, x1 = 0.2518	872.235
293.15 K, x1 = 0.3009	883.531
293.15 K, x1 = 0.3032	884.084
293.15 K, x1 = 0.3546	895.622
293.15 K, x1 = 0.399	905.367
293.15 K, x1 = 0.4007	905.744
293.15 K, x1 = 0.4522	916.775
293.15 K, x1 = 0.5012	927.038
293.15 K, x1 = 0.5527	937.589
293.15 K, x1 = 0.5978	946.625
293.15 K, x1 = 0.6019	947.427
293.15 K, x1 = 0.6526	957.368
293.15 K, x1 = 0.6961	965.704
293.15 K, x1 = 0.7503	975.858
293.15 K, x1 = 0.7973	984.5
293.15 K, x1 = 0.8492	993.819
293.15 K, x1 = 0.8978	1002.37
293.15 K, x1 = 0.947	1010.88
298.15 K, x1 = 0.053	819.639
298.15 K, x1 = 0.1019	832.026
298.15 K, x1 = 0.1502	843.949
298.15 K, x1 = 0.2028	856.65
298.15 K, x1 = 0.2523	868.3
298.15 K, x1 = 0.3497	890.395
298.15 K, x1 = 0.454	912.946
298.15 K, x1 = 0.5507	932.958
298.15 K, x1 = 0.6013	943.061
298.15 K, x1 = 0.648	952.194
298.15 K, x1 = 0.6994	962.043
298.15 K, x1 = 0.7465	970.86
298.15 K, x1 = 0.7505	971.594
298.15 K, x1 = 0.7968	980.073
298.15 K, x1 = 0.7977	980.251
298.15 K, x1 = 0.8465	988.996
298.15 K, x1 = 0.8486	989.382
298.15 K, x1 = 0.8987	998.178
298.15 K, x1 = 0.899	998.234
298.15 K, x1 = 0.9481	1006.69
298.15 K, x1 = 0.9483	1006.72
303.15 K, x1 = 0.0508	815.157
303.15 K, x1 = 0.1014	827.941
303.15 K, x1 = 0.1471	839.22
303.15 K, x1 = 0.2015	852.303
303.15 K, x1 = 0.2528	864.365
303.15 K, x1 = 0.3048	876.239
303.15 K, x1 = 0.3503	886.405
303.15 K, x1 = 0.3555	887.558
303.15 K, x1 = 0.4005	897.361
303.15 K, x1 = 0.4503	908.007
303.15 K, x1 = 0.4981	917.96
303.15 K, x1 = 0.5518	928.933
303.15 K, x1 = 0.5996	938.439
303.15 K, x1 = 0.648	947.877
303.15 K, x1 = 0.6991	957.619
303.15 K, x1 = 0.7497	967.071
303.15 K, x1 = 0.7954	975.414
303.15 K, x1 = 0.8491	985.035
303.15 K, x1 = 0.8964	993.318
303.15 K, x1 = 0.9513	1002.75

CCCCOCCOCCO [3,6-dioxa-1-decanol]
[1]
Settings	mass density [kg/m3]	speed of sound [m/s]
293.15 K	952.196	1374.3
298.15 K	948.103	1357
303.15 K	943.743	1340

CCCCOCCOCCO [3,6-dioxa-1-decanol] + CCCCO
[2]
Settings	mass density [kg/m3]
293.15 K, x1 = 0.1013	834.791
293.15 K, x1 = 0.1505	845.543
293.15 K, x1 = 0.2017	855.876
293.15 K, x1 = 0.2529	865.45
293.15 K, x1 = 0.3005	873.704
293.15 K, x1 = 0.3516	881.978
293.15 K, x1 = 0.4507	896.487
293.15 K, x1 = 0.5005	903.11
293.15 K, x1 = 0.5506	909.377
293.15 K, x1 = 0.6036	915.608
293.15 K, x1 = 0.6493	920.67
293.15 K, x1 = 0.7	925.984
293.15 K, x1 = 0.7292	928.912
293.15 K, x1 = 0.749	930.843
293.15 K, x1 = 0.8483	939.967
298.15 K, x1 = 0.0521	819.296
298.15 K, x1 = 0.15	841.555
298.15 K, x1 = 0.2022	852.057
298.15 K, x1 = 0.2535	861.607
298.15 K, x1 = 0.301	869.838
298.15 K, x1 = 0.3487	877.538
298.15 K, x1 = 0.4028	885.726
298.15 K, x1 = 0.4536	892.882
298.15 K, x1 = 0.6017	911.346
298.15 K, x1 = 0.6501	916.714
298.15 K, x1 = 0.7003	921.969
298.15 K, x1 = 0.7486	926.743
298.15 K, x1 = 0.7986	931.465
298.15 K, x1 = 0.8491	935.973
303.15 K, x1 = 0.0462	813.931
303.15 K, x1 = 0.0516	815.259
303.15 K, x1 = 0.1015	827.004
303.15 K, x1 = 0.1522	837.999
303.15 K, x1 = 0.2002	847.641
303.15 K, x1 = 0.2536	857.548
303.15 K, x1 = 0.3008	865.688
303.15 K, x1 = 0.3513	873.826
303.15 K, x1 = 0.3997	881.12
303.15 K, x1 = 0.4513	888.394
303.15 K, x1 = 0.5047	895.427
303.15 K, x1 = 0.552	901.283
303.15 K, x1 = 0.6546	912.925
303.15 K, x1 = 0.6992	917.561
303.15 K, x1 = 0.7074	918.41
303.15 K, x1 = 0.7476	922.362
303.15 K, x1 = 0.7976	927.051
303.15 K, x1 = 0.7988	927.176
303.15 K, x1 = 0.8959	935.611

CCOCCOCCO [3,6-dioxa-1-octanol]
[1]
Settings	mass density [kg/m3]	speed of sound [m/s]
293.15 K	987.876	1392.3
298.15 K	983.336	1374.3
303.15 K	978.788	1356.6

CCOCCOCCO [3,6-dioxa-1-octanol] + CCCCO
[2]
Settings	mass density
293.15 K, x1 = 0.0519	823.011 kg/m3
293.15 K, x1 = 0.1029	835.52 kg/m3
293.15 K, x1 = 0.1999	857.73 kg/m3
293.15 K, x1 = 0.2989	878.535 kg/m3
293.15 K, x1 = 0.3513	888.856 kg/m3
293.15 K, x1 = 0.4015	898.337 kg/m3
293.15 K, x1 = 0.4514	907.402 kg/m3
293.15 K, x1 = 0.5492	924.169 kg/m3
293.15 K, x1 = 0.5966	931.866 kg/m3
293.15 K, x1 = 0.65	940.215 kg/m3
293.15 K, x1 = 0.7002	947.765 kg/m3
293.15 K, x1 = 0.7009	947.885 kg/m3
293.15 K, x1 = 0.7015	947.962 kg/m3
293.15 K, x1 = 0.7952	961.375 kg/m3
293.15 K, x1 = 0.8477	968.507 kg/m3
293.15 K, x1 = 0.8489	968.677 kg/m3
293.15 K, x1 = 0.8966	974.953 kg/m3
293.15 K, x1 = 0.95	981.736 kg/m3
298.15 K, x1 = 0.0512	818.966 kg/m3
298.15 K, x1 = 0.1017	831.315 kg/m3
298.15 K, x1 = 0.1026	831.513 kg/m3
298.15 K, x1 = 0.151	842.801 kg/m3
298.15 K, x1 = 0.1733	847.84 kg/m3
298.15 K, x1 = 0.2524	864.926 kg/m3
298.15 K, x1 = 0.35	884.465 kg/m3
298.15 K, x1 = 0.4025	894.359 kg/m3
298.15 K, x1 = 0.449	902.763 kg/m3
298.15 K, x1 = 0.452	903.287 kg/m3
298.15 K, x1 = 0.4995	911.551 kg/m3
298.15 K, x1 = 0.5992	927.958 kg/m3
298.15 K, x1 = 0.6015	928.324 kg/m3
298.15 K, x1 = 0.6487	935.658 kg/m3
298.15 K, x1 = 0.7001	943.37 kg/m3
298.15 K, x1 = 0.7491	950.466 kg/m3 and 950.476 kg/m3
298.15 K, x1 = 0.8	957.603 kg/m3
298.15 K, x1 = 0.8086	958.782 kg/m3
298.15 K, x1 = 0.8491	964.231 kg/m3
298.15 K, x1 = 0.8982	970.663 kg/m3
303.15 K, x1 = 0.0507	814.94 kg/m3
303.15 K, x1 = 0.1007	827.098 kg/m3
303.15 K, x1 = 0.1488	838.296 kg/m3
303.15 K, x1 = 0.1539	839.456 kg/m3
303.15 K, x1 = 0.1998	849.635 kg/m3
303.15 K, x1 = 0.2025	850.231 kg/m3
303.15 K, x1 = 0.2526	860.864 kg/m3
303.15 K, x1 = 0.3035	871.188 kg/m3
303.15 K, x1 = 0.3042	871.343 kg/m3
303.15 K, x1 = 0.3492	880.114 kg/m3
303.15 K, x1 = 0.4027	890.141 kg/m3
303.15 K, x1 = 0.4543	899.435 kg/m3
303.15 K, x1 = 0.5504	915.759 kg/m3
303.15 K, x1 = 0.5525	916.103 kg/m3
303.15 K, x1 = 0.5539	916.33 kg/m3
303.15 K, x1 = 0.6	923.723 kg/m3
303.15 K, x1 = 0.6019	924.03 kg/m3
303.15 K, x1 = 0.7506	946.255 kg/m3
303.15 K, x1 = 0.8006	953.229 kg/m3
303.15 K, x1 = 0.8496	959.837 kg/m3
303.15 K, x1 = 0.949	972.571 kg/m3

CCCCO [butan-1-ol]
[1]
Settings	mass density [kg/m3]	speed of sound [m/s]
293.15 K	809.644	1256.7
298.15 K	805.842	1239.2
303.15 K	801.995	1222.7
